Calls of active or inactive are those of the source. No cut-off for these calls is given here. Peptide text beside a SMILES is read from it.
Experiments:
[1] = Antidiabetic nephropathy activity in rat CRL-2573 cells assessed as inhibition of high glucose-induced IL-6 production at 10 uM preincubated for 1 hr before glucose challenge measured after 24 hrs by ELISA; assay type: functional, cell-based
[2] = Antidiabetic nephropathy activity in rat CRL-2573 cells assessed as inhibition of high glucose-induced MCP-1 production at 10 uM preincubated for 1 hr before glucose challenge measured after 24 hrs by ELISA; assay type: functional, cell-based
[3] = Antidiabetic nephropathy activity in rat CRL-2573 cells assessed as inhibition of high glucose-induced ROS production at 1 to 10 uM by flow cytometry; assay type: functional, cell-based
[4] = Antidiabetic nephropathy activity in rat CRL-2573 cells assessed as inhibition of high glucose-induced collagen 4production at 1 uM preincubated for 1 hr before glucose challenge measured after 24 hrs by ELISA; assay type: functional, cell-based
[5] = Cytotoxicity against rat CRL-2573 cells assessed as cell viability at 10 uM after 24 hrs by trypan blue exclusion assay; assay type: cell-based; settings: crl-2573, 24 h

SMILES | Activity [1] | Activity [2] | Activity [3] | Activity [4] | Activity [5]
CC(C)C[C@@H]1NC(=O)[C@H](CC(=O)O)NC(=O)[C@H](Cc2c[nH]c3ccccc23)NC(=O)[C@H](C)NC(=O)[C@@H]2CCCN2C(=O)CNC(=O)[C@H](Cc2ccccc2)NC(=O)[C@@H]2CCCN2C1=O (cyclo(AWDLPFGP)) | Active | Active | Active |  | 
CC[C@H](C)[C@@H]1NC(=O)[C@@H]2CCCN2C(=O)[C@@H]2CCCN2C(=O)[C@H](Cc2ccc(O)cc2)NC(=O)[C@H](CO)NC(=O)[C@H](C)NC(=O)[C@H](Cc2ccccc2)NC(=O)[C@H](CO)NC1=O [DUANBANHUAIN A] (cyclo(ASYPPISF)) | Active | Active | Active | Active | Non-toxic
